Values joined by “and” are separate entries in the source; they are usually repeats but may differ in a detail not shown here. Equal values may be shown once. Read-outs that look alike come from different tables or passages of the source.
Tests used:
human PI3Kα (p110α/p85α) = human PI3Kα (p110α/p85α) (Homo sapiens, UniProt P42336); assay: Inhibition of PI3Kα kinase activity, ADP-Glo Assay (Reaction Biology); assay type: biochemical; conditions: 10 μM ATP; mean of two replicates; Table 12; read-out: Inhibition of kinase activity (as IC50) PICK
UT-SCC-54C cells [1] = assay: Radiosensitisation of UT-SCC-54C HNSCC cells, regrowth (sulforhodamine B) assay, oxic (Table 16); assay type: cell-based, human; conditions: for IC50: Homo sapiens, read-out: IC50; for S50: compound in combination with 3 Gy of radiation, 50% inhibition of regrowth fraction, UT-SCC-54C
ATM = ATM (Homo sapiens, UniProt Q13315); assay: ATM Human PIKK Kinase Enzymatic ELISA/EIA Assay, KinaseProfiler (Eurofins Discovery); assay type: biochemical; conditions: for IC50: KinaseProfiler, Km ATP, Table 15, read-out: Inhibition of PIKK kinase activity ATM
human DNA-PK = human DNA-PK (Homo sapiens, UniProt P78527); assay: Inhibition of DNA-PKcs kinase activity, HotSpot assay (Reaction Biology), [γ-33P]-ATP phosphorylation of peptide substrate; assay type: biochemical
UT-SCC-54C cells [2] = assay: Radiosensitisation of UT-SCC-54C HNSCC cells, clonogenic survival, oxic and anoxic (Table 18); assay type: cell-based, human; conditions: for Plating efficiency drug/no drug: no radiation
human mTOR = human mTOR (Homo sapiens, UniProt P42345); assay: Inhibition of mTOR kinase activity, HotSpot assay, phosphorylation of 4EPB1
HAP1/PRKDC−/− cells = assay: Radiosensitisation of DNA-PK null HAP1/PRKDC−/− cells, regrowth assay; assay type: cell-based, human; conditions: for radiosensitisation / differential growth inhibition of DNA-PK null HAP1 line: 3 Gy, HAP1/PRKDC−/−; for IC50: Homo sapiens, HAP1
ATR/ATRIP = ATR/ATRIP (Homo sapiens, UniProt Q13535); assay: ATR/ATRIP Human PIKK Kinase Enzymatic Radiometric Assay, KinaseProfiler (Eurofins Discovery); assay type: biochemical; conditions: Km ATP, Table 15, read-out: Inhibition of PIKK kinase activity ATR
HAP1 cells = assay: Radiosensitisation of HAP1 wild type cells, regrowth assay; assay type: cell-based, human; conditions: for effect in unirradiated HAP1 cells: 0 Gy; for radiosensitisation / differential growth inhibition of HAP1 cells: 3 Gy cobalt-60 gamma irradiation relative to radiation-only; for IC50: Homo sapiens, HAP1, read-out: HAP1 wt IC50
Ser2056 of DNA-PKcs = Ser2056 of DNA-PKcs (Homo sapiens, UniProt P78527); assay: Inhibition of cellular autophosphorylation at Ser2056 of DNA-PKcs in UT-SCC-54C cells, western immunoblotting; assay type: cell-based; conditions: oxia, 10 Gy, FIG. 7 (10 μM)
[3] = 10 μM ATP, 10 μg/ml DNA, mean of two replicates, Table 12, read-out: Inhibition of kinase activity (as IC50) DNA-PK (converted)
[4] = HotSpot assay Reaction Biology Corp., Table 15, read-out: Inhibition of PIKK kinase activity DNA-PK
[5] = Inhibition of PIKK kinase activity mTOR/FRAP (nM), HotSpot assay Reaction Biology Corp., Table 15
[6] = Inhibition of kinase activity (as IC50) mTOR (nM), 10 μM ATP, mean of two replicates, Table 12

Chain of human PI3Kα (p110α/p85α) (P42336 whole entry): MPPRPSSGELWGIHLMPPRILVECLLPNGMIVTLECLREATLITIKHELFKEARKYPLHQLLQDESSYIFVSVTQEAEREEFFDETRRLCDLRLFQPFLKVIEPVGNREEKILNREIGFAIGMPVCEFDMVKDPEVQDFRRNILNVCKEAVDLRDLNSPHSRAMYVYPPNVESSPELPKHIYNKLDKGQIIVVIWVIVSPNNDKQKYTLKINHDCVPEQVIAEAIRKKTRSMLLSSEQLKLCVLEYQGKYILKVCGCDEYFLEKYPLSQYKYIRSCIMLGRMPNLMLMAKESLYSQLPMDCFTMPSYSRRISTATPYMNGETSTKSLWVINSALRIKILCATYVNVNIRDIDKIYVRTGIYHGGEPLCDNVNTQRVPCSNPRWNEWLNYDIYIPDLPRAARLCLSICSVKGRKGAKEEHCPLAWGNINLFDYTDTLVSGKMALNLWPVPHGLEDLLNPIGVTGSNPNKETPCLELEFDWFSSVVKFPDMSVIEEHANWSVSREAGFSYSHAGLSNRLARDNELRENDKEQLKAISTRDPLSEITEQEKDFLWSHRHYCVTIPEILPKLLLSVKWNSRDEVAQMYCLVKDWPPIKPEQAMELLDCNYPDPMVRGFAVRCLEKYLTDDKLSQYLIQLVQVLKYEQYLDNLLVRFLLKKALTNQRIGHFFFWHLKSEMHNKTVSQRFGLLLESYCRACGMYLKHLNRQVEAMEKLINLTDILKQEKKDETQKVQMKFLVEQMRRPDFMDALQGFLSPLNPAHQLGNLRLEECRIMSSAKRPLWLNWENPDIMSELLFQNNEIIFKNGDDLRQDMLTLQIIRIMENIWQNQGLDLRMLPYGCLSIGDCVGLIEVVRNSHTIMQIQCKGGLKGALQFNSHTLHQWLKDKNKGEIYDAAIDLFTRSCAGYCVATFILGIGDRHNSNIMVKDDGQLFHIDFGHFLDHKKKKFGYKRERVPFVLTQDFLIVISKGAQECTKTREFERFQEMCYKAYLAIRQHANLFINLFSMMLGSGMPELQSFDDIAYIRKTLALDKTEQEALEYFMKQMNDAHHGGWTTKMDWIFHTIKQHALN
Chain of human PI3Kα (p110α/p85α) (P27986 whole entry partner): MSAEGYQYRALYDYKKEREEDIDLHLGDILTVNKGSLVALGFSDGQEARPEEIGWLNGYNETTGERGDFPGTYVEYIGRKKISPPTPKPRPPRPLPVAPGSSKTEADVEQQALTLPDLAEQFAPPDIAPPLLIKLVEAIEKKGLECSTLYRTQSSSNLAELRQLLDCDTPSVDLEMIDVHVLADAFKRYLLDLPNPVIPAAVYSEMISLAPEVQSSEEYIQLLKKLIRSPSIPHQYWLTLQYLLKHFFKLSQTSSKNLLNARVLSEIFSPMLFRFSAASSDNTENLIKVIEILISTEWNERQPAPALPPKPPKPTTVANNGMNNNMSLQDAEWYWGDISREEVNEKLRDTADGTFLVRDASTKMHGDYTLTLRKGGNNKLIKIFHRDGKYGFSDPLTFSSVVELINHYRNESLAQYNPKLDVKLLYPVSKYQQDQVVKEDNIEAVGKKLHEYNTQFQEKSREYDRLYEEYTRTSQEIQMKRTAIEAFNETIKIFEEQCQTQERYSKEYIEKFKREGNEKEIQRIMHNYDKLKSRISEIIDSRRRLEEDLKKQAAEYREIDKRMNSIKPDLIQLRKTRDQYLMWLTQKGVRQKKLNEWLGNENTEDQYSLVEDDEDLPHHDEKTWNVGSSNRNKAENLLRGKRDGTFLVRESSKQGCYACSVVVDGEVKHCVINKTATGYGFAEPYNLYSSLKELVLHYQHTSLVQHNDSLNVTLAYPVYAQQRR
Chain of ATM (Q13315 whole entry): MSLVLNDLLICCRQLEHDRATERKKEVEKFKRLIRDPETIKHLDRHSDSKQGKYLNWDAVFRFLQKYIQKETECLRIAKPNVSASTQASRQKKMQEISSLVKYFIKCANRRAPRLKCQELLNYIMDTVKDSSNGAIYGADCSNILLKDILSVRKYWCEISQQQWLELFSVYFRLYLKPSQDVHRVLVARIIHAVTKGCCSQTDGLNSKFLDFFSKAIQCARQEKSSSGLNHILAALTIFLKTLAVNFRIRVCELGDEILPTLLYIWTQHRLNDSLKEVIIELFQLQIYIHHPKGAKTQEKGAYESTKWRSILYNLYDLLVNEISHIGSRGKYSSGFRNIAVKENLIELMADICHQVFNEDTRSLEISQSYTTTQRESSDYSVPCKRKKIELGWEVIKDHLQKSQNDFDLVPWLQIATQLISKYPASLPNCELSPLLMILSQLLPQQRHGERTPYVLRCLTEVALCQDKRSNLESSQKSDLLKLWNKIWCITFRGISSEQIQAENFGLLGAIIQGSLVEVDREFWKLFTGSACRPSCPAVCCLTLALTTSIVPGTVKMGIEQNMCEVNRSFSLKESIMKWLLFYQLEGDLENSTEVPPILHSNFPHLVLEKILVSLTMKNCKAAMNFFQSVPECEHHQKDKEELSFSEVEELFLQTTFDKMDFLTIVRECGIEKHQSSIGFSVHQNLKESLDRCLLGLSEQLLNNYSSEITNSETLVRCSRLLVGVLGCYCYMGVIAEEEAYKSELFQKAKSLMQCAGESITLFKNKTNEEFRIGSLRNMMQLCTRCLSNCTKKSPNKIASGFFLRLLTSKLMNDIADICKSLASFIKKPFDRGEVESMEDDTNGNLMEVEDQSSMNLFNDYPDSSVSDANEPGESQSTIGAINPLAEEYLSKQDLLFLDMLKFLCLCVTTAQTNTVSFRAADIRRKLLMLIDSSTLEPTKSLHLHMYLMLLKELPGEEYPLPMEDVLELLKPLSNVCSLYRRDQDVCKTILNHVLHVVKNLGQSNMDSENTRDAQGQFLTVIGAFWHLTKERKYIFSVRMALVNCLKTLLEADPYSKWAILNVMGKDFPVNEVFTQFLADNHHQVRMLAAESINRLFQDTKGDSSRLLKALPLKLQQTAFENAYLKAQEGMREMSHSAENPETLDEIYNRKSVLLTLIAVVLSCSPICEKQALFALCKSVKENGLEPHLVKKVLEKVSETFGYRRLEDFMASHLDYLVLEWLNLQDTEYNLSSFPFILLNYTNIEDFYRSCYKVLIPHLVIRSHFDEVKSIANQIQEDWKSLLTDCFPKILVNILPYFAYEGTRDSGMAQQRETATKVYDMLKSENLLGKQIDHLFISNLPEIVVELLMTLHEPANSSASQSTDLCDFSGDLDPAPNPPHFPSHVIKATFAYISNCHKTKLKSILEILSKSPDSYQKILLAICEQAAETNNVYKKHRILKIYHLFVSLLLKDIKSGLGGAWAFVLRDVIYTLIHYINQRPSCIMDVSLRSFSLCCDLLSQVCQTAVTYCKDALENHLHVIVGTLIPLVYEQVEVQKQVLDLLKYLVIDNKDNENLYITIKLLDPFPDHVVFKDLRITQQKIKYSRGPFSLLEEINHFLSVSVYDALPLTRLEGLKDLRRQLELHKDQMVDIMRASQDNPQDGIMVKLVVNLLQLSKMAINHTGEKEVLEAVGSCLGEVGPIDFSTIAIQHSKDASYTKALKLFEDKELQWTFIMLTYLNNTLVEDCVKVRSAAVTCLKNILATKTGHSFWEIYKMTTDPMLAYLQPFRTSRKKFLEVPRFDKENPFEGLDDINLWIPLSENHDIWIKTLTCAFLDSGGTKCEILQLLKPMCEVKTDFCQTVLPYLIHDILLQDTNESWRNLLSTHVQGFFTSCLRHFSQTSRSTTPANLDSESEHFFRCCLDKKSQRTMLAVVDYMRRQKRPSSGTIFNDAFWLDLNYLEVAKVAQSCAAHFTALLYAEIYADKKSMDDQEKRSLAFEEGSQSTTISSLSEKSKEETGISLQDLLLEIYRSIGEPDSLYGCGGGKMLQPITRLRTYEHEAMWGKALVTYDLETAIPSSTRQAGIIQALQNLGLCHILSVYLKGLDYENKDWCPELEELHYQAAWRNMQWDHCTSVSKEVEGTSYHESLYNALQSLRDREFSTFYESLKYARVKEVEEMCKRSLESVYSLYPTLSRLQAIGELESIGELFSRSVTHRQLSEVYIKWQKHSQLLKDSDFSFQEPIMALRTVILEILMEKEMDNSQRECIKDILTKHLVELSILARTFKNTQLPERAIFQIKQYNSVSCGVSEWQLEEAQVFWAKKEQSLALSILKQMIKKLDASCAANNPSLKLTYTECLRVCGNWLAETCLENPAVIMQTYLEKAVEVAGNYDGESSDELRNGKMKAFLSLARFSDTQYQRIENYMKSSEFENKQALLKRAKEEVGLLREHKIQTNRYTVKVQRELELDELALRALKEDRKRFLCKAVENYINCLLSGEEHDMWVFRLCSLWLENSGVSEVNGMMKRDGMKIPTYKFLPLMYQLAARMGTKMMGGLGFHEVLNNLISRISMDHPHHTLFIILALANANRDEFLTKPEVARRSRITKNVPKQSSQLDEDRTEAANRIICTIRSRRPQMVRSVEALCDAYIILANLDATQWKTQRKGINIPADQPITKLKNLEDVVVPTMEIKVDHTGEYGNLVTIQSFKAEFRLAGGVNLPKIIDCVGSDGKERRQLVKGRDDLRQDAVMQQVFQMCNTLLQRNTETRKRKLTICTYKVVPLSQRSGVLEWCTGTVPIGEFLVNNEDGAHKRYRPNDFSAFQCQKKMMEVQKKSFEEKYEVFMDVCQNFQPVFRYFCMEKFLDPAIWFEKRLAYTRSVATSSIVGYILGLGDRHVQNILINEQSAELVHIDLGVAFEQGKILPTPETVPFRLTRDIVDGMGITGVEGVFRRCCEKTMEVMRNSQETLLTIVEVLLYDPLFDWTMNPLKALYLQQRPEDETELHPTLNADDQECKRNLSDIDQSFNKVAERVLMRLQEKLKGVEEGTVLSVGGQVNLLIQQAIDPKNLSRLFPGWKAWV

SMILES	IC50 (human PI3Kα (p110α/p85α))	IC50 (UT-SCC-54C cells [1]) [µM]	S50 (UT-SCC-54C cells [1]; oxic) [µM]	IC50 (human DNA-PK; [3])	IC50 (human DNA-PK; [4]) [µM]	D1 (radiation dose for 1% surviving fraction) (UT-SCC-54C cells [2]; 20% O2, compound conc 1 μM) [Gy]	D10 (radiation dose for 10% surviving fraction) (UT-SCC-54C cells [2]; 20% O2, compound conc 1 μM) [Gy]	SER1 (sensitiser enhancement ratio at 1% surviving fraction) (UT-SCC-54C cells [2]; 20% O2, compound conc 1 μM)	SER10 (sensitiser enhancement ratio at 10% surviving fraction) (UT-SCC-54C cells [2]; 20% O2, compound conc 1 μM)	Plating efficiency drug/no drug (UT-SCC-54C cells [2]; 20% O2, compound conc 1 μM)	IC50 (human mTOR; [5]) [nM]	IC50 (human mTOR; [6])	radiosensitisation / differential growth inhibition of DNA-PK null HAP1 line (HAP1/PRKDC−/− cells)	IC50 (HAP1/PRKDC−/− cells) [µM]	IC50 (ATR/ATRIP) [µM]	effect in unirradiated HAP1 cells (HAP1 cells)	radiosensitisation / differential growth inhibition of HAP1 cells (HAP1 cells)	IC50 (HAP1 cells) [µM]	IC50 (ATM) [µM]	other results
Cc1cc2ncnn2cc1Nc1cc2c(cn1)n(C)c(=O)n2C1CCOCC1 [Compound 125, 3-Methyl-6-((7-methyl-[1,2,4]triazolo[1,5-a]pyridin-6-yl)amino)-1-(tetrahydro-2H-pyran-4-yl)-1,3-dihydro-2H-imidazo[4,5-c]pyridin-2-one]	10.7 µM	> 10	0.67	0.0143 µM	0.0143	4.90	2.49	1.77	2.17	1.02	43900	43900 nM	did not radiosensitise	> 10	> 1	little effect	concentration-dependent radiosensitisation	> 10		remaining activity at 1 µM (ATM; read-out: ATM, Percent of control at 1 μM): 74%
Cc1nc2cc(C)c(Nc3cc4c(cn3)n(C)c(=O)n4C3CCOCC3)cc2s1 [Compound 127, 6-((2,5-Dimethylbenzo[d]thiazol-6-yl)amino)-3-methyl-1-(tetrahydro-2H-pyran-4-yl)-1,3-dihydro-2H-imidazo[4,5-c]pyridin-2-one]	3.96 µM	> 10	0.22	0.00711 µM	0.00711						5420	5420 nM	did not radiosensitise	> 10		little effect	concentration-dependent radiosensitisation	> 10	2.56	
Cc1cc(OCc2cnc([N+](=O)[O-])n2C)ccc1Nc1cc2c(cn1)n(C)c(=O)n2C1CCOCC1 [Compound 236, 3-Methyl-6-((2-methyl-4-((1-methyl-2-nitro-1H-imidazol-5-yl)methoxy)phenyl)amino)-1-(tetrahydro-2H-pyran-4-yl)-1,3-dihydro-2H-imidazo[4,5-c]pyridin-2-one]	16.2 µM and 52.3 µM	> 10	>10	0.78 µM and 2.2 µM	0.78	9.41	6.06	1.00	0.94	1.05	92900	92900 nM and > 100000 nM	did not demonstrate any differential growth inhibition	> 10	> 100		did not demonstrate any differential growth inhibition	> 10	57.3	radiosensitisation / differential growth inhibition of UT-SCC-54C cells (UT-SCC-54C cells [1]; oxic, 0 or 3 Gy, regrowth assay): did not display any differential growth inhibition; D1 (radiation dose for 1% surviving fraction) (UT-SCC-54C cells [2]; 0% O2, compound conc 1 μM): 17.4 Gy; D10 (radiation dose for 10% surviving fraction) (UT-SCC-54C cells [2]; 0% O2, compound conc 1 μM): 9.96 Gy; SER1 (sensitiser enhancement ratio at 1% surviving fraction) (UT-SCC-54C cells [2]; 0% O2, compound conc 1 μM): 1.37; SER10 (sensitiser enhancement ratio at 10% surviving fraction) (UT-SCC-54C cells [2]; 0% O2, compound conc 1 μM): 1.58; Plating efficiency drug/no drug (UT-SCC-54C cells [2]; 0% O2, compound conc 1 μM): 1.09; SER (sensitiser enhancement ratio) (UT-SCC-54C cells [2]; UT-SCC-54C, anoxic conditions, clonogenic survival, FIG. 10): 1.51; sensitisation of UT-SCC-54C cells selectively under anoxia (UT-SCC-54C cells [2]; oxic vs anoxic, clonogenic survival, FIGS. 9 and 10): provide sensitisation of UT-SCC-54C cells selectively under anoxia
COc1ccc([C@@H](O)c2cc(-c3ncnc4cc(N5CCOCC5)ccc34)c(F)cc2Cl)nn1 [Compound M3814, reference compound]																				inhibition of Ser2056 on DNA-PKcs (Ser2056 of DNA-PKcs): demonstrated inhibition

— US20230365559A1, “NOVEL AMINOPYRIDINES AND THEIR USE IN TREATING CANCER” (priority 2020, published 2023)
